Results taken from patent publication US12472193B2, “Methods and compositions for treating and preventing respiratory related diseases and conditions with xylitol-headgroup lipid analogs” (National Jewish Health, priority 2017, dated 2025).
“Also recorded” adds a separate entry of the source.

Molecular target: T1, TLR 4 (Mus musculus, UniProt Q9JHF9+Q9QUK6)
T1 construct: endogenous in cells; host or cells: RAW264.7 (ATCC)
T1 sequence (Q9QUK6 26-835): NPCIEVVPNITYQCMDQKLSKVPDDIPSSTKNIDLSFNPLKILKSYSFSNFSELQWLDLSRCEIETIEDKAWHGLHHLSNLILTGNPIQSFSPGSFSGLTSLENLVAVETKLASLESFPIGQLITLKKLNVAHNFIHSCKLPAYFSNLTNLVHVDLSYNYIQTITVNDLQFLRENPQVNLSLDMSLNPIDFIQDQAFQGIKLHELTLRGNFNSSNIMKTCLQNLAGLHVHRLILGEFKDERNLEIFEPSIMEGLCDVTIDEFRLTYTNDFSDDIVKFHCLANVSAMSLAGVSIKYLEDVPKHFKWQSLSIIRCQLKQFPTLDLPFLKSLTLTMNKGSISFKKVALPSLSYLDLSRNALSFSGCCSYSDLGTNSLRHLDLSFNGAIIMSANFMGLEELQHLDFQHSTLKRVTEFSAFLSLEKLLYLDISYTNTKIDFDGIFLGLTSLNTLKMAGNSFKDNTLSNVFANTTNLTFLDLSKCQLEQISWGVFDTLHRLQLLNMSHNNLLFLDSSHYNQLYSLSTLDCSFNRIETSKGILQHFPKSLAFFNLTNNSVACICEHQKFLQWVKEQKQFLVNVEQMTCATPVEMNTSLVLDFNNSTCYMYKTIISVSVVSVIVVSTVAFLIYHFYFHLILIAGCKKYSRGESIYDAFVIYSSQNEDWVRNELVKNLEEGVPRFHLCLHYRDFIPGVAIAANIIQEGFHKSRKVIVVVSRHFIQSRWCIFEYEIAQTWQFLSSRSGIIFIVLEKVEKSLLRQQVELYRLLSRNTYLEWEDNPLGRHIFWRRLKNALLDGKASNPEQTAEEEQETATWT
T1 sequence (Q9JHF9 19-160): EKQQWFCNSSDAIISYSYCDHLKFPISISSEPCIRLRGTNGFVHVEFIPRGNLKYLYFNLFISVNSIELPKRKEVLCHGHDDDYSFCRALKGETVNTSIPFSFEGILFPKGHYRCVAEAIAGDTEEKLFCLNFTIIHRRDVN
Test: LPS-induced TNF-α secretion by RAW264.7 cells (TLR 4 antagonism)
Assay type: cell-based
Conditions: for antagonism of TLR 4 activation (TNFα secretion): 10 ng/mL LPS, 50 μg/mL lipid; for antagonism of TLR 4 activation (TNFα secretion) / IC50 values (inhibition of TNFα release) / IC50: 4 hours; for IC50 values (inhibition of TNFα release) / IC50: RAW264.7, 10 ng/mL LPS, lipid 100 to 0.008 μg/mL; for IC50: read-out: IC50 values (inhibition of TNFα release) (converted); for potency as TLR 4 antagonist compared to POPG: from dose response curves
Procedure: The mouse macrophage cell line, RAW264.7, was obtained from ATCC and maintained in DMEM, supplemented with 10% bovine growth serum and 1× penicillin streptomycin. Cells were maintained at 37° C. with 5% carbon dioxide: 95% air atmosphere within the incubator. Experiments were completed in a 96-well plate where cells were seated at a density of 1×10^5 cells per well, 24 prior to stimulation with TLR agonists and antagonists. Lipids were dried under a stream of nitrogen, hydrated with phosphate-buffered saline (PBS) at 37° C. for one hour, followed by water bath sonication to create liposomes. Each condition for cell stimulation and antagonism was prepared in DMEM in a separate tube and consisted of: control, TLR agonist, TLR agonist+lipid, and lipid alone. 100 μL aliquots of medium+agonists+antagonists were added to each well and incubated at 37° C. for 4 hours. Subsequently, the media were collected, diluted and an enzyme-linked immunosorbent assay (ELISA) was performed to quantify TNFα release by cells.
The additional experiments disclosed herein, tested the initial activity of multiple POPG analogs. […] However, it was unknown how the combination of a xylitol head group along with varying hydrophobic chains affects this activity and mechanism of suppression. Varying the hydrophobic chains provides an approach for optimization of a PX lipid for maximum efficacy and uncovers important structure/function relationships. To test antagonist activity of PX lipids for preventing the activation of TLR 4, LPS was added to RAW264.7 cells at 10 ng/mL in the absence or presence of 50 μg/mL of lipid and incubated for 4 hours. After incubation, media were collected and secretion of the proinflammatory cytokine, TNFα, was quantified by ELISA as a downstream consequence of TLR 4 activation. Eight xylitol lipid analogs suppressed the activation of TLR 4 in the presence of LPS stimulus. […] Although inhibition of TLR 4 by DSPX was statistically different from LPS alone, its antagonism was marginal. DSPX is also a saturated lipid and the hydrophobic chains are 18 carbons in length. […] In these studies none of the lipids alone elicited significant amounts of proinflammatory cytokine release.
For quantitative comparisons between POPG analogs and POPG, concentration-dependent inhibition studies were performed and IC50 values were determined. RAW264.7 cells were stimulated with 10 ng/mL of LPS in combination with concentrations of lipid from 100 μg/mL to 0.008 μg/mL. Cells were stimulated for 4 hours followed by collection of media and quantification of TNFα released into the medium.

| SMILES | antagonism of TLR 4 activation (TNFα secretion) | IC50 values (inhibition of TNFα release) | inhibitory concentration reducing TNF-α production by 50% (IC50), as shown in FIG. 3 (RAW264.7, 10 ng/ml LPS) [µg/mL] | IC50 [µM] | potency as TLR 4 antagonist compared to POPG |
| --- | --- | --- | --- | --- | --- |
| CCCCCCCC/C=C\CCCCCCCC(=O)O[C@H](COC(=O)CCCCCCCCCCCCCCC)COP(=O)(O)OCC(O)CO (stereo partly drawn) [POPG, palmitoyl-oleoyl-phosphatidylglycerol, reference compound] | inhibits activation of TLR4 | 3.33 µg/mL | ~2 | – | – |
| CCCCCCCCCCCCCCCC(=O)OCC(COP(=O)(O)OCC(O)C(O)C(O)CO)OC(=O)CCCCCCCCCCCCCCC (stereo not drawn) [DPPX, sn-1-palmitoyl, sn-2-palmitoyl sn-3 glycerol phosphoxylitol] | ineffective as an antagonist | could not be determined | – | – | – |
| CCCCCCCCCCCCCC(=O)OC[C@H](COP(=O)(O)OCC(O)C(O)C(O)CO)OC(=O)CCCCCCCCCCCCC (mixture of isomers) [DMPX, sn-1-myristoyl, sn-2-myristoyl sn-3 glycerol phosphoxylitol] | strong antagonistic activity | – | – | 33 | – |
| CCCCCCC=CCCCCCCCC(=O)OCC(COP(=O)(O)OCC(O)C(O)C(O)CO)OC(=O)CCCCCCCC=CCCCCCC (mixture of isomers) [16:1 DPPX, sn-1-palmitoleoyl, sn-2-palmitoleoyl sn-3 glycerol phosphoxylitol] | – | 1 µg/mL | – | – | – |
| CCCCCCCC/C=C\CCCCCCCC(=O)O[C@H](COC(=O)CCCCCCCCCCCCCCC)COP(=O)(O)OCC(O)C(O)C(O)CO (stereo partly drawn) [POPX, sn-1-palmitoyl, sn-2-oleoyly sn-3 glycerol phosphoxylitol] | – | 0.52 µg/mL | – | – | more potent antagonists of TLR 4 activation than POPG |
| CCCCCCCCC=CCCCCCCCCOCC(COP(=O)(O)OCC(O)C(O)C(O)CO)OCCCCCCCCC=CCCCCCCCC (mixture of isomers) [18:1 DEPX, sn-1-O-octadecenyl, sn-2-O-octadecenyl sn-3 glycerol phosphoxylitol] | effective antagonists; also recorded: inhibit | 0.33 µg/mL | – | – | more potent antagonists of TLR 4 activation than POPG |
| CCCCCCCCCCCCCCCCCC(=O)OCC(COP(=O)(O)OCC(O)C(O)C(O)CO)OC(=O)CCCCCCCCCCCCCCCCC (stereo not drawn) [DSPX, sn-1-stearoyl, sn-2-stearoyl sn-3 glycerol phosphoxylitol] | marginal | could not be determined | – | – | – |
| CCCCCCCC/C=C\CCCCCCCC(=O)O[C@H](COC(=O)CCCCCCCCCCCCCCC)COP(=O)([O-])OCC[N+](C)(C)C [POPC, 1-palmitoyl-2-oleoyl-sn-glycero-3-phosphocholine, reference compound] | does not significantly alter the activation of TLR4 | could not be determined | – | – | – |
| CCCCCCCCC=CCCCCCCCC(=O)OCC(COP(=O)(O)OCC(O)C(O)C(O)CO)OC(=O)CCCCCCCC=CCCCCCCCC (mixture of isomers) [DOPX, sn-1-oleoyl, sn-2-oleoyl sn-3 glycerol phosphoxylitol] | inhibit | 0.36 µg/mL | – | – | more potent antagonists of TLR 4 activation than POPG |
| CCCCCC=CCC=CCCCCCCCC(=O)OCC(COP(=O)(O)OCC(O)C(O)C(O)CO)OC(=O)CCCCCCCC=CCC=CCCCCC (mixture of isomers) [18:2 DLPX, sn-1-linoleoyl, sn-2-linoleoyl sn-3 glycerol phosphoxylitol] | – | 0.28 µg/mL | – | – | more potent antagonists of TLR 4 activation than POPG |
| CCCCCCCCCCCCCCOC[C@H](COP(=O)(O)OCC(O)C(O)C(O)CO)OCCCCCCCCCCCCCC (mixture of isomers) [14:0 DEPX, sn-1-O-myristyl, sn-2-O-myristyl sn-3 glycerol phosphoxylitol] | effective antagonists | – | – | 4.08 | – |
